Results published in publication PMC5766581, “NF-κB inducing kinase is a therapeutic target for systemic lupus erythematosus” (Nature Communications, 2018).
“And” between values parts separate entries of the source, which are not always exact repeats. Identical values can stand only once.

Columns and labels:
Experiment in all cases: SelectScreen kinase panel
Format in all cases: biochemical
KHS1 = biological target: T1, KHS1 (Homo sapiens, UniProt Q9Y4K4); conditions: NIK SMI1 1 µM; ATP Km app
T1 construct: purchased Invitrogen / ThermoFisher SelectScreen
Procedure, shortened: (§1)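 Human kinases were profiled in Invitrogen's SelectScreen broad panel. Depending on the enzyme, inhibition was assessed by peptide phosphorylation (Z′-LYTE), by ADP formation (Adapta), or by displacement at the ATP site (LanthaScreen), and then reported as mean percent inhibition.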

CK1_alpha1 = biological target: T2, CK1_alpha1 (Homo sapiens, UniProt P48729)
T2 construct: purchased Invitrogen / ThermoFisher SelectScreen
Procedure, shortened: as §1

CK1_epsilon1 = biological target: T3, CK1_epsilon1 (Homo sapiens, UniProt P49674)
T3 construct: purchased Invitrogen / ThermoFisher SelectScreen
Procedure, shortened: as §1

IRAK4 = biological target: T4, IRAK4 (Homo sapiens, UniProt Q9NWZ3)
T4 construct: purchased Invitrogen / ThermoFisher SelectScreen
Procedure, shortened: as §1

DCAMKL2 = biological target: T5, DCAMKL2 (Homo sapiens, UniProt Q8N568)
T5 construct: purchased Invitrogen / ThermoFisher SelectScreen
Procedure, shortened: as §1

Syk = biological target: T6, Syk (Homo sapiens, UniProt P43405)
T6 construct: purchased Invitrogen / ThermoFisher SelectScreen
Procedure, shortened: as §1

MST2 = biological target: T7, MST2 (Homo sapiens, UniProt Q13188)
T7 construct: purchased Invitrogen / ThermoFisher SelectScreen
Procedure, shortened: as §1

ErbB2 = biological target: T8, ErbB2 (Homo sapiens, UniProt P04626)
T8 construct: purchased Invitrogen / ThermoFisher SelectScreen
Procedure, shortened: as §1

GSK3_alpha = biological target: T9, GSK3_alpha (Homo sapiens, UniProt P49840)
T9 construct: purchased Invitrogen / ThermoFisher SelectScreen
Procedure, shortened: as §1

PKC-epsilon = biological target: T10, PKC-epsilon (Homo sapiens, UniProt Q02156)
T10 construct: purchased Invitrogen / ThermoFisher SelectScreen
Procedure, shortened: as §1

ZAP-70 = biological target: T11, ZAP-70 (Homo sapiens, UniProt P43403)
T11 construct: purchased Invitrogen / ThermoFisher SelectScreen
Procedure, shortened: as §1

CamKII_alpha = biological target: T12, CamKII_alpha (Homo sapiens, UniProt Q9UQM7)
T12 construct: purchased Invitrogen / ThermoFisher SelectScreen
Procedure, shortened: as §1

Flt3 = biological target: T13, Flt3 (Homo sapiens, UniProt P36888)
T13 construct: purchased Invitrogen / ThermoFisher SelectScreen
Procedure, shortened: as §1

Ret = biological target: T14, Ret (Homo sapiens, UniProt P07949)
T14 construct: purchased Invitrogen / ThermoFisher SelectScreen
Procedure, shortened: as §1

MSSK1 = biological target: T15, MSSK1 (Homo sapiens, UniProt Q9UPE1)
T15 construct: purchased Invitrogen / ThermoFisher SelectScreen
Procedure, shortened: as §1

HIPK1 = biological target: T16, HIPK1 (Homo sapiens, UniProt Q86Z02)
T16 construct: purchased Invitrogen / ThermoFisher SelectScreen
Procedure, shortened: as §1

CHK2 = biological target: T17, CHK2 (Homo sapiens, UniProt O96017)
T17 construct: purchased Invitrogen / ThermoFisher SelectScreen
Procedure, shortened: as §1

PKC_alpha = biological target: T18, PKC_alpha (Homo sapiens, UniProt P17252)
T18 construct: purchased Invitrogen / ThermoFisher SelectScreen
Procedure, shortened: as §1

PDK1 = biological target: T19, PDK1 (Homo sapiens, UniProt O15530)
T19 construct: purchased Invitrogen / ThermoFisher SelectScreen
Procedure, shortened: as §1

GRK2 = biological target: T20, GRK2 (Homo sapiens, UniProt P25098)
T20 construct: purchased Invitrogen / ThermoFisher SelectScreen
Procedure, shortened: as §1

Yes = biological target: T21, Yes (Homo sapiens, UniProt P07947)
T21 construct: purchased Invitrogen / ThermoFisher SelectScreen
Procedure, shortened: as §1

Lyn = biological target: T22, Lyn (Homo sapiens, UniProt P07948)
T22 construct: purchased Invitrogen / ThermoFisher SelectScreen
Procedure, shortened: as §1

NEK9 = biological target: T23, NEK9 (Homo sapiens, UniProt Q8TD19)
T23 construct: purchased Invitrogen / ThermoFisher SelectScreen
Procedure, shortened: as §1

CK1_delta = biological target: T24, CK1_delta (Homo sapiens, UniProt P48730)
T24 construct: purchased Invitrogen / ThermoFisher SelectScreen
Procedure, shortened: as §1

CLK3 = biological target: T25, CLK3 (Homo sapiens, UniProt P49761)
T25 construct: purchased Invitrogen / ThermoFisher SelectScreen
Procedure, shortened: as §1

MARK1 = biological target: T26, MARK1 (Homo sapiens, UniProt Q9P0L2)
T26 construct: purchased Invitrogen / ThermoFisher SelectScreen
Procedure, shortened: as §1

LRRK2 = biological target: T27, LRRK2 (Homo sapiens, UniProt Q5S007); conditions: NIK SMI1 1 µM; ATP Km app
T27 construct: purchased Invitrogen / ThermoFisher SelectScreen
Procedure, shortened: as §1

Frk = biological target: T28, Frk (Homo sapiens, UniProt P42685)
T28 construct: purchased Invitrogen / ThermoFisher SelectScreen
Procedure, shortened: as §1

EphA8 = biological target: T29, EphA8 (Homo sapiens, UniProt P29322)
T29 construct: purchased Invitrogen / ThermoFisher SelectScreen
Procedure, shortened: as §1

EGFR (T790M,L858R) = biological target: T30, EGFR (T790M,L858R) (Homo sapiens, UniProt P00533, L858R/T790M)
T30 construct: purchased Invitrogen / ThermoFisher SelectScreen
Procedure, shortened: as §1

GRK6 = biological target: T31, GRK6 (Homo sapiens, UniProt P43250)
T31 construct: purchased Invitrogen / ThermoFisher SelectScreen
Procedure, shortened: as §1

CK2_alpha1 = biological target: T32, CK2_alpha1 (Homo sapiens, UniProt P68400)
T32 construct: purchased Invitrogen / ThermoFisher SelectScreen
Procedure, shortened: as §1

T27 sequence (Q5S007 whole entry): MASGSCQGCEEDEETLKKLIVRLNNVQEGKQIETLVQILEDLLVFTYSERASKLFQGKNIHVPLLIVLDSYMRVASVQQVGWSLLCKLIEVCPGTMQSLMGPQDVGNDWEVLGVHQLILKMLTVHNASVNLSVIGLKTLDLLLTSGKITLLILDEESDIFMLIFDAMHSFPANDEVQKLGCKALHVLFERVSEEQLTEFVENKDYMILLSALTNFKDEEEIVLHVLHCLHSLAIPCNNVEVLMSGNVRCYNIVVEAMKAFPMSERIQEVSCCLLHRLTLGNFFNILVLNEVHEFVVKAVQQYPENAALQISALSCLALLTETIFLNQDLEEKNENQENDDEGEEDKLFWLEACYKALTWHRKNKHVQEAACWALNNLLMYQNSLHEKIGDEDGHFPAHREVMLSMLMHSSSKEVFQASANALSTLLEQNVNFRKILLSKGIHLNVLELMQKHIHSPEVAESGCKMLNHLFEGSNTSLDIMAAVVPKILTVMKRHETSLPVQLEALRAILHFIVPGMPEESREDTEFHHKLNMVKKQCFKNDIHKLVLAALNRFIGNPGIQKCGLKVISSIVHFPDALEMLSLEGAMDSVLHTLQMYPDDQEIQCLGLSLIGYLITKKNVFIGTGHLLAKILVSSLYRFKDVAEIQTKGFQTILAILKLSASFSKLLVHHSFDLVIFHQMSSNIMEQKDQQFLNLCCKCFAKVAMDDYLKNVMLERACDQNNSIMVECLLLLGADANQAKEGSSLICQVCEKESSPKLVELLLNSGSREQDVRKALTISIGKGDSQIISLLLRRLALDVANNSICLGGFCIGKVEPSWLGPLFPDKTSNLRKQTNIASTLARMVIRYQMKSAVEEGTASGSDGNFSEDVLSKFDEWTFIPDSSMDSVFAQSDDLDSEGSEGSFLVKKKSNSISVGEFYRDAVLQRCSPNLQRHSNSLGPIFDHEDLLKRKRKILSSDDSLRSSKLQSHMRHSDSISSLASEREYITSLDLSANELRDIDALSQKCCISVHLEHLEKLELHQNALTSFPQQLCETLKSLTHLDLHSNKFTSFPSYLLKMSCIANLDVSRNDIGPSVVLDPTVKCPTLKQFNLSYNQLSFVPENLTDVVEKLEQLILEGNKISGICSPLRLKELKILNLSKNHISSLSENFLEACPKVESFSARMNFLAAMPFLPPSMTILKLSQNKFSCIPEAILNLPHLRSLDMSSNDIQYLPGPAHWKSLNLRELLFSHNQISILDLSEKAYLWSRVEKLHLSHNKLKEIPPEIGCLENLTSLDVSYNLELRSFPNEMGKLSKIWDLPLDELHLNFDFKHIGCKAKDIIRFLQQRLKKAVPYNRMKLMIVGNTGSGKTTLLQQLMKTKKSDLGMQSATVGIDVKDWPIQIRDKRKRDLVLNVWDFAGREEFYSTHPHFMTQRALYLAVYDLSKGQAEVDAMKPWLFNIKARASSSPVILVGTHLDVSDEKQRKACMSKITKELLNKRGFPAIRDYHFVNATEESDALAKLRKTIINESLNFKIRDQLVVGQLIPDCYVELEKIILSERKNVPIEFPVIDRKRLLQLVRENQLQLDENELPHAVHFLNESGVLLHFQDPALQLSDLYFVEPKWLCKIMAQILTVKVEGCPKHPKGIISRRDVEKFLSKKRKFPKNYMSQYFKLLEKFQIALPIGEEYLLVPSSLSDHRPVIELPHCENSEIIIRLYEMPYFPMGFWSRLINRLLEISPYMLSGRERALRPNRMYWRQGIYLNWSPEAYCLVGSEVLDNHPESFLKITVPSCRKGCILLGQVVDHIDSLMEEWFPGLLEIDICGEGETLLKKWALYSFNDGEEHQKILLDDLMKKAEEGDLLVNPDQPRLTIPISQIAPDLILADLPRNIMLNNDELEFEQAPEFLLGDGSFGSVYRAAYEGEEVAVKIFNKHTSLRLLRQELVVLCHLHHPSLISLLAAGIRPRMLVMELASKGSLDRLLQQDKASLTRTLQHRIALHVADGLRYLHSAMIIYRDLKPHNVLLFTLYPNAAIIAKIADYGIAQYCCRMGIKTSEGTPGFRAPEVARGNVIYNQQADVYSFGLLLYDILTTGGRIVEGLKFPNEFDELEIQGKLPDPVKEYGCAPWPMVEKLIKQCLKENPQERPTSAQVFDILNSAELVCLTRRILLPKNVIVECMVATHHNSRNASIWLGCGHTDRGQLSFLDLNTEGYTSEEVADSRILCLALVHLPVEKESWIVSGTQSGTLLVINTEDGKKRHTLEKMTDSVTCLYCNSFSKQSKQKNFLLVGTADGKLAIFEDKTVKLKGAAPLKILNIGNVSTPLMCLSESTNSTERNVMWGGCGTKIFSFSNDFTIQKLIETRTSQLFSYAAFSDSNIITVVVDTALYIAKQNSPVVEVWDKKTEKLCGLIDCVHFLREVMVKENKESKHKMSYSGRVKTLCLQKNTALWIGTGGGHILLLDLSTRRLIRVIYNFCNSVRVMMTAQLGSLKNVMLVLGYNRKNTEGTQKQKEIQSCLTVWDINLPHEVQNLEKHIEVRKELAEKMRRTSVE
T1 sequence (Q9Y4K4 whole entry): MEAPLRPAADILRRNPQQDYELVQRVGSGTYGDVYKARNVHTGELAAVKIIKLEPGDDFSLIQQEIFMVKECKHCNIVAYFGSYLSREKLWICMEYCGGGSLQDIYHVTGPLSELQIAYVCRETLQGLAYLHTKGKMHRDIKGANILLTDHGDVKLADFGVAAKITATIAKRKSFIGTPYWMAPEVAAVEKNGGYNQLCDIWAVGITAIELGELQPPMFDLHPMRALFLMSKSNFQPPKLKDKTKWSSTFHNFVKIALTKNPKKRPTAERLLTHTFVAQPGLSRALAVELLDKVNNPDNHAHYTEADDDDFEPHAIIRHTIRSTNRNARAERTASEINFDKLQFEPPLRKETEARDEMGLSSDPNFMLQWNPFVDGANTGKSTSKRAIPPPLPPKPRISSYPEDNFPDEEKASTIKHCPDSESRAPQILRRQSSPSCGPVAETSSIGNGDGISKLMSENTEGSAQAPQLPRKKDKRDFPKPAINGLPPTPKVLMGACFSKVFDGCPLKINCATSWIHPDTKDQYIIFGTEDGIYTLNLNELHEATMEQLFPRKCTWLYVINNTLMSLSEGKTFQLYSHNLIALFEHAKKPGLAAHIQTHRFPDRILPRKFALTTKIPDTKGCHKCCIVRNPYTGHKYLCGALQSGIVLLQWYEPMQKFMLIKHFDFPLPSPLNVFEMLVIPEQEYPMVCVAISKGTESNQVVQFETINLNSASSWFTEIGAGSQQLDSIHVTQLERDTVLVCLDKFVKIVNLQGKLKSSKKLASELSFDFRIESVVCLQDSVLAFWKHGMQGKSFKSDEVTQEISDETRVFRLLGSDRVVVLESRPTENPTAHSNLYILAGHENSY
T30 sequence (P00533 25-1210 T790M/L858R): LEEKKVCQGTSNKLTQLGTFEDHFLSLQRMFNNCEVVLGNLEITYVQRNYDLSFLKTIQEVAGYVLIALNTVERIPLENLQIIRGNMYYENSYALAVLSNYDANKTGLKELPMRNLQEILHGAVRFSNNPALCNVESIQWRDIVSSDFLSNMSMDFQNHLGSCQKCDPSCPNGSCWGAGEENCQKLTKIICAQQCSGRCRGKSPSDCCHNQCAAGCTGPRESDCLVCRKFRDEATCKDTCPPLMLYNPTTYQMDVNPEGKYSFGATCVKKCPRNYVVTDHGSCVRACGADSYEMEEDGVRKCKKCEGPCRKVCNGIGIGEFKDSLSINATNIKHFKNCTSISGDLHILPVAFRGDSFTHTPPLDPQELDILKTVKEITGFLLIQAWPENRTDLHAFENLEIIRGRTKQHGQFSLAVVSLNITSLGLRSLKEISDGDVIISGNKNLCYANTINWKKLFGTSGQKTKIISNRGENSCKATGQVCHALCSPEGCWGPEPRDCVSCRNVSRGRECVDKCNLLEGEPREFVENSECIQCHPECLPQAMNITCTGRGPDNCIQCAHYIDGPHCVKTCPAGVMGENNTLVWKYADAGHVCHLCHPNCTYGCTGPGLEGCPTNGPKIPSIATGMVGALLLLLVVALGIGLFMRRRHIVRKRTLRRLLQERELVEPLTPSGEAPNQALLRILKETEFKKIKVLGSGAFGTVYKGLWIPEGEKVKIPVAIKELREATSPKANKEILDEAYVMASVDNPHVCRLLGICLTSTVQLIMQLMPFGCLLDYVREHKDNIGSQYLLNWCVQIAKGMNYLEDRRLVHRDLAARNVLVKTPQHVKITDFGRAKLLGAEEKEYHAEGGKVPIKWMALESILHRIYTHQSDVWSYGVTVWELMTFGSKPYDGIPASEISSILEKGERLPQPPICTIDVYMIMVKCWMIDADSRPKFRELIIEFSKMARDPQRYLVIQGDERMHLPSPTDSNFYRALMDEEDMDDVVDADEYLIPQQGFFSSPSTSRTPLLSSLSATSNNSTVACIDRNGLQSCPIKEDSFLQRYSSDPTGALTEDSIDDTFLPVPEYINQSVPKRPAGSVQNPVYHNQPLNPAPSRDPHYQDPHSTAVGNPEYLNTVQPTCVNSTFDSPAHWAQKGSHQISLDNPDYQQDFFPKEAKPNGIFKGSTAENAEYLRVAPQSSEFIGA
T25 sequence (P49761 whole entry): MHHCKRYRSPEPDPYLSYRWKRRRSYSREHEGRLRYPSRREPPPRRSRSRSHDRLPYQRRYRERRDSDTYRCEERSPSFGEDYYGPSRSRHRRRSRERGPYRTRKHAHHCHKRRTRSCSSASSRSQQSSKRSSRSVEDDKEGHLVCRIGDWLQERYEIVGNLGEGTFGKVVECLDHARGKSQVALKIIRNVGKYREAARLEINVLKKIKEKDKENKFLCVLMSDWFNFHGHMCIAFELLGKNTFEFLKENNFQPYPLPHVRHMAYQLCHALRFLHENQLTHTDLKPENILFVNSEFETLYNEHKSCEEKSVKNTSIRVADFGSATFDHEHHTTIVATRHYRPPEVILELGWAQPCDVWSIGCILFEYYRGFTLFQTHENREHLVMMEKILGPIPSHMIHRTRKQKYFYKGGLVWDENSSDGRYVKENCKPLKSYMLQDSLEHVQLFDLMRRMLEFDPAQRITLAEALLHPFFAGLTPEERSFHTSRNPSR

COc1cc(C(N)=O)nc(-c2cccc(C#C[C@]3(O)CCN(C)C3=O)c2)c1 [NIK SMI1]
% Inhibition (KHS1): > 75% and 96%
inhibition at 1 µM (CK1_alpha1): 2%
inhibition at 1 µM (CK1_epsilon1): 6.5%
inhibition at 1 µM (IRAK4): -1.5%
inhibition at 1 µM (DCAMKL2): 6.5%
inhibition at 1 µM (Syk): -0.5%
inhibition at 1 µM (MST2): 28%
inhibition at 1 µM (ErbB2): -1.5%
inhibition at 1 µM (GSK3_alpha): 15%
inhibition at 1 µM (PKC-epsilon): 2%
inhibition at 1 µM (ZAP-70): 17%
inhibition at 1 µM (CamKII_alpha): 17.5%
inhibition at 1 µM (Flt3): 13.5%
inhibition at 1 µM (Ret): 2%
inhibition at 1 µM (MSSK1): 11.5%
inhibition at 1 µM (HIPK1): 4.5%
inhibition at 1 µM (CHK2): 4.5%
inhibition at 1 µM (PKC_alpha): 4.5%
inhibition at 1 µM (PDK1): -0.5%
inhibition at 1 µM (GRK2): 4.5%
inhibition at 1 µM (Yes): 0.5%
inhibition at 1 µM (Lyn): 2.5%
inhibition at 1 µM (NEK9): 1.5%
inhibition at 1 µM (CK1_delta): -4.5%
inhibition at 1 µM (CLK3): 14.5%
inhibition at 1 µM (MARK1): 16%
% Inhibition (LRRK2): 82.1%
inhibition at 1 µM (LRRK2): > 75%
inhibition at 1 µM (Frk): 18%
inhibition at 1 µM (EphA8): -3.5%
inhibition at 1 µM (EGFR (T790M,L858R)): 9.5%
inhibition at 1 µM (GRK6): 9%
inhibition at 1 µM (CK2_alpha1): 4.5%
